Laboratory results published in US4315941A, “Urazole analogs of prostaglandin derivatives” (Beecham Group Limited, priority 1979, dated 1982).

tested on: 5-hydroxytryptamine or histamine induced bronchoconstriction; experiment: Bronchodilation activity: inhibition of 5-hydroxytryptamine or histamine induced bronchoconstriction in the anaesthetised artificially respired guinea-pig (Konzett-Rossler preparation); format: in vivo, guinear-pig; details: Cavia porcellus, iv, 5-hydroxytryptamine or histamine induced bronchoconstriction (Konzett-Rossler)
Source text: The compounds were examined for their ability to inhibit 5-hydroxytryptamine or histamine induced bronchoconstriction in the anaesthetised artificially respired guinear-pig (Konzett-Rossler preparation).

Question: With CCCCC(C)C(C)(O)CCn1c(=O)n(C)c(=O)n1CCCCCCCCC(C)O (stereo not shown) [Compound 1, 1-(9'-Hydroxydecyl)-2-(3"-hydroxy-3",4"-dimethyloctyl)-4-methyl-1,2,4-triazolidine-3,5-dione] as the compound, how does the ED50 read?
Answer: The ED50 was 0.02 mg/kg.

Question: For CCCCC(C)C(C)(O)CCn1c(=O)n(C)c(=O)n1C/C=C\CCCCC(C)O (stereo not shown) [Compound 3], which ED50 is on record?
Answer: Its ED50 is 0.0175 mg/kg.

Question: CCCCCCC(C)(O)CCn1c(=O)n(C)c(=O)n1CCCCCCCC(C)O (stereo not shown) [Compound 4] was tested. Which ED50 did it give?
Answer: Its ED50 is 0.0042 mg/kg.

Question: With CC(O)CCCC/C=C\Cn1c(=O)n(C)c(=O)n1CCC(C)(O)C1CCCCC1 (stereo not shown) [Compound 7] as the compound, how does the ED50 read?
Answer: The ED50 was 0.16 mg/kg.
